Test results taken from patent US4791215A, “Derivatives of glutamic acid and aspartic acid” (priority 1984, dated 1988).

Columns and labels:
morphine analgesia = assay: Increase in analgesia of morphine, Tail Flick Test (Experiment 1); type: in vivo, rats; conditions: for percentage variation of latency of pain sensation / M (10-90) ± SE, mean percentage variation of latency: compound 10 mg/kg i.p. + morphine 2 mg/kg; for M (10-90) ± SE, mean percentage variation of latency: mean 10-90 min; for Power ratio with respect to morphine alone: rat, in vivo
Experimental: Experiment No: 1 Increase in analgesia of analgesic-narcotic drugs in rats by the Tail Flick Test
The method is that described by Harris et al. (J. Pharmacol. Exp. Ther. 143 (1964) 141-148).
Male rats are used having a weight of about 150-200 g which have not fasted. A point on the tail is chosen and irradiated by a heat source (75° C.) and the time (in seconds) for which the animal remains without moving its tail is measured.
A maximum period of time of 8 seconds under the heat source is chosen, after which the animal is, in any case, removed to avoid tissue damage. The measurement is effected before (controls) and after treatment with the drugs.
The percentage variation is calculated for each individual animal by the following formula: [formula] The measurements were carried out 10, 20, 30, 45, 60 and 90 minutes after treatment with the analgesics.

[1] = system: activity of analgesic drugs; assay: Hot-plate test, potentiation of analgesic drugs (Experiment 2); type: in vivo, rats
Experimental: Experiment No. 2: Hot-plate test
The method is that described by Eddy et al. (J. Pharmac. Exp. Ther. 107, 385 (1953)).
Groups of five male rats having a weight of about 150 g, and which have not fasted, are used.
The animals are placed on a metal plate on the bottom of a transparent cylinder, which is heated to 55°±1° C. by an azeotropic boiling mixture (acetone-ethyl formate 1:1).
The reaction time is defined as the interval which passes between the moment at which the animal is placed on the hot-plate and the moment at which it either licks its feet or tries to jump out of the cylinder. The control reaction time is measured 10 and 5 minutes before administration of the drugs and 10, 20, 30, 45, 60 and 90 minutes afterwards. The animals are left on the plate for a maximum period of 30 seconds.
The response to the administration of the product is considered positive if at least a doubling of the normal reaction time is seen. The results obtained are given in Tables 2a and 2b which record the groups treated, the doses administered and the stay times on the plate expressed as the number of positive responses over the number treated.

Compound	percentage variation of latency of pain sensation (morphine analgesia; 10')	percentage variation of latency of pain sensation (morphine analgesia; 20')	percentage variation of latency of pain sensation (morphine analgesia; 30')	percentage variation of latency of pain sensation (morphine analgesia; 45')	percentage variation of latency of pain sensation (morphine analgesia; 60')	percentage variation of latency of pain sensation (morphine analgesia; 90')	M (10-90) ± SE, mean percentage variation of latency (morphine analgesia)	Power ratio with respect to morphine alone (morphine analgesia)	further results
CCCCNC(=O)C(CCC(=O)O)NC(=O)c1ccc(CCC)cc1 (centres unmarked) [Compound C-44]	-1.6 ± 11%	17.0 ± 6%	24.9%	26.9 ± 19%	35.1 ± 17%	39.8 ± 8%	23.7 ± 15%	0.79	–
CCCN(CCC)C(=O)C(CCC(=O)O)NC(=O)c1ccc(CC(C)C)cc1 (centres unmarked) [Compound C-38]	53.8%	85.7 ± 10%	92.0 ± 8%	99.1 ± 1%	91.2 ± 9%	51.1 ± 14%	78.8%	2.64	–
CCN(CC)C(=O)C(CCC(=O)O)NC(=O)c1ccc(C)c(C)c1 (centres unmarked) [Compound C-40]	43.8 ± 15%	69.1%	49.0 ± 23%	85.6 ± 6%	76.5 ± 17%	61.5 ± 14%	64.2 ± 16%	2.15	–
CCCCN(CCCC)C(=O)C(CCC(=O)O)NC(=O)c1cccc(C)c1 (centres unmarked) [Compound C-53]	31.2 ± 15%	46.7 ± 28%	70.2 ± 23%	76.9 ± 22%	45.6 ± 27%	12.6 ± 25%	47.2 ± 24%	1.58	–
CCCCNC(=O)CCC(NC(=O)c1ccc(CC)cc1)C(=O)O [Compound D-13]	7.1 ± 8%	32%	62.5 ± 23%	31.8 ± 21%	48.5 ± 22%	50.9 ± 14%	38.8 ± 20%	1.30	–
CC(=O)Oc1ccccc1C(=O)O [Acetyl Salicylic Acid, reference compound]	–	–	–	–	–	–	–	–	TOTAL positives ([1]; acetyl salicylic acid 100 mg/kg i.p. alone): 8 x/30; positive responses over number treated ([1]; acetyl salicylic acid 100 mg/kg i.p. alone, 10'): 1/5; positive responses over number treated ([1]; acetyl salicylic acid 100 mg/kg i.p. alone, 20'): 2/5; positive responses over number treated ([1]; acetyl salicylic acid 100 mg/kg i.p. alone, 30'): 2/5; positive responses over number treated ([1]; acetyl salicylic acid 100 mg/kg i.p. alone, 45'): 2/5; positive responses over number treated ([1]; acetyl salicylic acid 100 mg/kg i.p. alone, 60'): 0/5; positive responses over number treated ([1]; acetyl salicylic acid 100 mg/kg i.p. alone, 90'): 1/5
Cc1ccc(C(=O)NC(CCC(=O)O)C(=O)N2CCCCC2)cc1C (centres unmarked) [Compound C-52]	72.8 ± 15%	95.8 ± 3%	96.3 ± 4%	85.5 ± 10%	87.6%	45.3 ± 6%	80.6 ± 19%	2.70	–
CCCNC(=O)CCC(NC(=O)c1ccc(C)c(C)c1)C(=O)O [Compound D-16]	29.7 ± 21%	42.8 ± 18%	40.1 ± 22%	35.4 ± 18%	33.3 ± 20%	23.3%	34.1 ± 17%	1.14	–
Propoxyphene [reference compound]	–	–	–	–	–	–	–	–	TOTAL positives ([1]; propoxyphene 10 mg/kg i.p. alone): 8 X/30; positive responses over number treated ([1]; propoxyphene 10 mg/kg i.p. alone, 10'): 1/5; positive responses over number treated ([1]; propoxyphene 10 mg/kg i.p. alone, 20'): 2/5; positive responses over number treated ([1]; propoxyphene 10 mg/kg i.p. alone, 30'): 2/5; positive responses over number treated ([1]; propoxyphene 10 mg/kg i.p. alone, 45'): 2/5; positive responses over number treated ([1]; propoxyphene 10 mg/kg i.p. alone, 60'): 1/5; positive responses over number treated ([1]; propoxyphene 10 mg/kg i.p. alone, 90'): 0/5; TOTAL positives ([1]; propoxyphene 15 mg/kg i.p. alone): 12 x/30; positive responses over number treated ([1]; propoxyphene 15 mg/kg i.p. alone, 10'): 2/5; positive responses over number treated ([1]; propoxyphene 15 mg/kg i.p. alone, 20'): 2/5; positive responses over number treated ([1]; propoxyphene 15 mg/kg i.p. alone, 30'): 3/5; positive responses over number treated ([1]; propoxyphene 15 mg/kg i.p. alone, 45'): 3/5; positive responses over number treated ([1]; propoxyphene 15 mg/kg i.p. alone, 60'): 1/5; positive responses over number treated ([1]; propoxyphene 15 mg/kg i.p. alone, 90'): 3/5
Cc1ccc(C(=O)NC(CCC(=O)O)C(=O)N(C)C)cc1C (centres unmarked) [Compound C-50]	22.3 ± 13%	68.9 ± 9%	60.2 ± 19%	49.4 ± 14%	73.5 ± 15%	24.7 ± 6%	49.8 ± 22%	1.67	–
CCCNC(=O)C(CCC(=O)O)NC(=O)c1ccc(C)c(C)c1 (centres unmarked) [Compound C-45]	57.2 ± 18%	99.7 ± 0.3%	95.7 ± 4%	93.1 ± 7%	77.7 ± 11%	80.4%	84.0 ± 16%	2.82	–
CC(C)c1ccc(C(=O)NC(CCC(=O)O)C(=O)NC2CCCCC2)cc1 (centres unmarked) [Compound C-49]	62.1 ± 9%	100.0 ± 0%	97.6 ± 2%	99.5 ± 0.5%	99.2 ± 0.5%	65.8 ± 0.8%	87.4%	2.93	–
CCCCNC(=O)C(CCC(=O)O)NC(=O)c1ccc(CC)cc1 (centres unmarked) [Compound C-43]	54.1 ± 17%	44.4 ± 23%	38.9 ± 26%	36.8 ± 27%	47.8 ± 23%	22.5 ± 13%	40.7 ± 11%	1.36	–
CCCCNC(=O)CCC(NC(=O)c1ccc(CCC)cc1)C(=O)O [Compound D-14]	69.2 ± 14%	93.4 ± 7%	46.8 ± 15%	71.3 ± 17%	89.1 ± 9%	60.3%	71.1 ± 14%	2.41	–
Cc1ccc(C(=O)NC(CCC(=O)O)C(=O)N2CCOCC2)cc1C (centres unmarked) [Compound C-51]	78.7 ± 18%	82.8%	90.5 ± 10%	86.4 ± 14%	65.6 ± 13%	48.5 ± 10%	75.4 ± 16%	2.53	–
